According to patent US5488060A, “Substituted thiadiazoles, compositions containing them and their use as antimicrobial and marine antifouling agents” (The Dow Chemical Company, priority 1994, dated 1996):
Values after ≈ are worked out from the molar mass of the structure shown. Like-named read-outs stand apart in the source and are kept apart here.

Tests used:
Bacillus subtilis (Bs) = assay: Minimum inhibitory concentration (MIC) in nutrient agar, Bacillus subtilis; assay type: cell-based
Method in brief: (§1)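 Bacteria (10^8 CFU/mL suspensions) were replicator-spotted onto nutrient agar plates, neutral pH 6.8 or alkaline pH 8.2, containing test compound at 0–500 ppm. After 48 h at 30° C, growth inhibition was read to give the MIC.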

[1] = system: Enterobacter aerogenes (Ea); assay: Minimum inhibitory concentration (MIC) in nutrient agar, Enterobacter aerogenes; assay type: cell-based; conditions: Klebsiella aerogenes
Method in brief: as §1

[2] = system: Klebsiella pneumoniae (Kp); assay: Minimum inhibitory concentration (MIC) in nutrient agar, Klebsiella pneumoniae; assay type: cell-based
Method in brief: as §1

Proteus vulgaris (Pv) = assay: Minimum inhibitory concentration (MIC) in nutrient agar, Proteus vulgaris; assay type: cell-based
Method in brief: as §1

[3] = system: Pseudomonas aeruginosa (PRD-10); assay: Minimum inhibitory concentration (MIC) in nutrient agar, Pseudomonas aeruginosa PRD-10; assay type: cell-based
Method in brief: as §1

[4] = system: Pseudomonas aeruginosa (Pa); assay: Minimum inhibitory concentration (MIC) in nutrient agar, Pseudomonas aeruginosa; assay type: cell-based; conditions: 30° C., 48 hours, read-out: Minimum Inhibitory Concentration, Pa
Method in brief: as §1

[5] = system: Saccharomyces cerevisiae (Sc); assay: Minimum inhibitory concentration (MIC) in malt yeast agar, Saccharomyces cerevisiae; assay type: cell-based
Method in brief: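 Malt yeast agar pH 5.5 + cpd (from 1% soln in acetone/water) at final 500–zero ppm, poured at 48 °C, dried 24 h. Inoculum: 7-day 30 °C slants suspended in saline/octylphenoxy polyethoxy ethanol, diluted 1:9, replicator-spotted. Incubated 30 °C; read 48 h yeast, 72 h fungi.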

Trichoderma viride (Tv) = assay: Minimum inhibitory concentration (MIC) in malt yeast agar, Trichoderma viride; assay type: cell-based
Method in brief: (§2)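 Fungal inocula from 7-day malt yeast agar cultures (30° C) were suspended in saline with octylphenoxy polyethoxy ethanol, diluted 1:9, and spotted onto malt yeast agar (pH 5.5) containing test compound at 0–500 ppm. Growth assessed after 72 hours at 30° C to give MIC.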

[6] = system: Aureobasidium pullulan (Ap); assay: Minimum inhibitory concentration (MIC) in malt yeast agar, Aureobasidium pullulan; assay type: cell-based
Method in brief: as §2

marine organisms = assay: Marine antifouling rating of coated test panels exposed to the marine environment; conditions: scale 10 (completely free of growth) to 0 (completely covered); for Marine Antifouling Rating, 6 Week Test, Top Panel / Marine Antifouling Rating, 6 Week Test, Bottom Panel: 6 weeks; for Marine Antifouling Rating, 6 Week Test, Top Panel / Marine Antifouling Rating, 10 Week Test, Top Panel: topside; for Marine Antifouling Rating, 6 Week Test, Bottom Panel / Marine Antifouling Rating, 10 Week Test, Bottom Panel: underside; for Marine Antifouling Rating, 10 Week Test, Top Panel / Marine Antifouling Rating, 10 Week Test, Bottom Panel: 10 weeks
Protocol: Test panels are prepared from clear, rigid polyvinyl chloride film that is 0.381×10-3 m thick and has one textured surface. The test panels are 0.1524 m by 0.1524 m squares that have 0.00635 m holes punched at corners on 0.127 m centers. A 0.102 square template, with a 0.067 m diameter hole at the center, is attached to the center of the textured surface of the test panels.
A candidate marine antifoulant compound (1.0 g) is stirred into a resinous latex binder (9.0 g). A portion of the compound/binder mixture (1.5 g) is added to the center of the test panel and uniformly spread over the circular area inside the template.
Water is added dropwise as needed to properly spread the compound/binder mixture. The template prevents the compound/binder mixture from spreading beyond the uncovered area. […] The template is then removed. The test panel is then allowed to dry for 8 to 12 hours at room temperature.
Two test panels are prepared for each candidate marine antifoulant compound. Two control test panels are also prepared by only treating with the resinous latex binder. One test panel of each candidate marine […] compound is attached over a white background to the topside of an exposure support apparatus. The second test panel is attached over a black background to the underside of the exposure support apparatus. The exposure support apparatus is placed horizontally 0.0254 m under a marine surface with the white background topside facing up.
After being removed from the exposure support apparatus, each test panel is inspected and rated for marine organism growth on both the treated and untreated areas of the test panel, The marine organisms present on the treated and untreated areas are noted. The presence of algae spores and bacterial slime are noted but not included in rating each test panel. The test panels are rated on a scale from 10 (representing completely free of marine organism growth) to 0 (representing completely covered with marine organism growth).
In addition, test panels were prepared using tributyl tin oxide, a known marine antifouling compound.

[7] = 48 h, pH 8.2, read-out: Minimum Inhibitory Concentration, Bs
[8] = pH 6.8, nutrient agar, 30° C., 48 hours, read-out: Minimum Inhibitory Concentration, Bs
[9] = 48 h, pH 8.2, read-out: Minimum Inhibitory Concentration, Ea
[10] = pH 6.8, nutrient agar, 30° C., 48 hours, read-out: Minimum Inhibitory Concentration, Kp
[11] = pH 6.8, nutrient agar, 30° C., 48 hours, read-out: Minimum Inhibitory Concentration, Pv
[12] = 48 h, pH 8.2, read-out: Minimum Inhibitory Concentration, PRD

Row | SMILES | MIC (Bacillus subtilis (Bs); [7]) [µg/mL] | MIC (Bacillus subtilis (Bs); [8]) [µg/mL] | MIC [1, 9] [µg/mL] | MIC [2, 10] [µg/mL] | MIC (Proteus vulgaris (Pv); [11]) [µg/mL] | MIC [3, 12] [µg/mL] | MIC ([4]; pH 8.2, nutrient agar) [µg/mL] | Marine Antifouling Rating, 6 Week Test, Top Panel (marine organisms) | Marine Antifouling Rating, 6 Week Test, Bottom Panel (marine organisms) | Marine Antifouling Rating, 10 Week Test, Top Panel (marine organisms) | Marine Antifouling Rating, 10 Week Test, Bottom Panel (marine organisms) | further results
1 | N#CSc1nsnc1-c1ccccc1 [Example I, 4-Phenyl-3-thiocyanato-1,2,5-thiadiazole] | 250 (≈ 1140 µM) | < 10 | 500 (≈ 2280 µM) | 25 (≈ 114 µM) | 50 (≈ 228 µM) | > 500 | > 500 | 7 | 7 | 4 | 3 | MIC ([1]; pH 6.8, nutrient agar, 30° C., 48 hours, read-out: Minimum Inhibitory Concentration, Ea): 100 µg/mL (≈ 456 µM); MIC ([2]; 48 h, pH 8.2, read-out: Minimum Inhibitory Concentration, Kp): 500 µg/mL (≈ 2280 µM); MIC (Proteus vulgaris (Pv); 48 h, pH 8.2, read-out: Minimum Inhibitory Concentration, Pv): 500 µg/mL (≈ 2280 µM); MIC ([3]; 48 h, pH 6.8, read-out: Minimum Inhibitory Concentration, PRD): > 500 µg/mL; MIC ([4]; pH 6.8, nutrient agar): > 500 µg/mL; MIC ([5]; pH 5.5, malt yeast agar, 30° C., 48 hours for yeast, read-out: Minimum Inhibitory Concentration, SC): < 1 µg/mL; MIC (Trichoderma viride (Tv); pH 5.5, malt yeast agar, 30° C., 72 hours for fungi, read-out: Minimum Inhibitory Concentration, Tv): 2.5 µg/mL (≈ 11.4 µM); MIC ([6]; pH 5.5, malt yeast agar, 30° C., read-out: Minimum Inhibitory Concentration, Ap): < 1 µg/mL
2 | N#CSCSc1nsnc1-c1ccccc1 [Example XVI, 4-Phenyl-3-thiocyanato-methylthio-1,2,5-thiadiazole] | 250 (≈ 942 µM) | < 10 | 500 (≈ 1880 µM) | 25 (≈ 94.2 µM) | 50 (≈ 188 µM) | 50 (≈ 188 µM) | 250 (≈ 942 µM) | 9 | 9 | 4 | 9 | MIC ([1]; 48 h, pH 6.8, read-out: Minimum Inhibitory Concentration, Ea): 50 µg/mL (≈ 188 µM); MIC ([2]; pH 8.2, nutrient agar, 30° C., 48 hours, read-out: Minimum Inhibitory Concentration, Kp): 100 µg/mL (≈ 377 µM); MIC (Proteus vulgaris (Pv); pH 8.2, nutrient agar, 30° C., 48 hours, read-out: Minimum Inhibitory Concentration, Pv): 250 µg/mL (≈ 942 µM); MIC ([3]; pH 6.8, nutrient agar, 30° C., 48 hours, read-out: Minimum Inhibitory Concentration, PRD): 25 µg/mL (≈ 94.2 µM); MIC ([5]; 48 h, pH 5.5, read-out: Minimum Inhibitory Concentration, SC): 2.5 µg/mL (≈ 9.42 µM); MIC (Trichoderma viride (Tv); 72 h, pH 5.5, read-out: Minimum Inhibitory Concentration, Tv): 10 µg/mL (≈ 37.7 µM); MIC ([6]; pH 5.5, read-out: Minimum Inhibitory Concentration, Ap): 2.5 µg/mL (≈ 9.42 µM)
